Test results from patent US4289777A, “Quinolonecarboxylic acid derivatives and pharmaceutical preparations thereof for treatment of an allergic disease of the respiratory tract” (Schering, Aktiengesellschaft, priority 1978, dated 1981).
≈ marks a conversion by molar mass, not a printed value. Where a name gives a salt, the structure may show the parent alone. Read-outs that look alike come from different tables or passages of the source.

Columns and labels:
[1] = test system: Staphylococcus aureus 30-3; test: in vitro series dilution test, antibacterial effect; type: cell-based; details: 303; Staphylococcus aureus 30-3, in vitro; read-out: Minimum Inhibitory Concentration
From the text: (§1) The antibacterial effect can be measured in vitro in a series dilution test.

[2] = test system: Staphylococcus aureus 30-53; test: as above; type: cell-based; details: 3053; Staphylococcus aureus 30-53, in vitro; read-out: Minimum Inhibitory Concentration
From the text: as §1

[3] = test system: Staphylococcus aureus 30-8; test: as above; type: cell-based; details: 308; Staphylococcus aureus 30-8, in vitro; read-out: Minimum Inhibitory Concentration
From the text: as §1

[4] = test system: Staphylococcus aureus 30-107; test: as above; type: cell-based; details: 30107; Staphylococcus aureus 30-107, in vitro; read-out: Minimum Inhibitory Concentration
From the text: as §1

Diplococcus pneumoniae = test: as above; type: cell-based; details: Streptococcus pneumoniae, read-out: Minimum Inhibitory Concentration
From the text: as §1

[5] = test system: Staphylococcus aureus 30-2; test: as above; type: cell-based; details: 302; Staphylococcus aureus 30-2, in vitro; read-out: Minimum Inhibitory Concentration
From the text: as §1

[6] = test system: Staphylococcus aureus 30-64; test: as above; type: cell-based; details: 3064; Staphylococcus aureus 30-64, in vitro; read-out: Minimum Inhibitory Concentration
From the text: as §1

[7] = test system: Staphylococcus aureus 30-109; test: as above; type: cell-based; details: 30109; Staphylococcus aureus 30-109, in vitro; read-out: Minimum Inhibitory Concentration
From the text: as §1

[8] = test system: Diplococcus pneumoniae and a series of strains of Staphylococcus aureus; test: in vitro series dilution test, antibacterial effect (summary over all bacteria); type: cell-based; details: in words
From the text: as §1

[9] = test system: passive cutaneous anaphylaxis in rats (PCA), mediator liberation; test: passive cutaneous anaphylaxis in rats (PCA), inhibition of allergic reaction; type: in vivo; details: iv, rat PCA, i.v.
Procedure: For this purpose, rats are passively sensitized by the intracutaneous injection of various dilutions (1:8 and 1:16) of a standardized IgE-containing hyperimmune serum. After 48 hours, the compound to be tested, dissolved as the sodium salt in a physiological NaCl solution, and ovalbumin as the allergen, combined with a dye to better measure the local allergic reaction, are administered intravenously.
The measurement determines the inhibition of the allergic reaction in the presence of the test compound as compared with the allergic reaction without the inhibiting agent.

carrageenin test = test: carrageenin test, antiinflammatory effect; type: in vivo
From the text: The inflammation-inhibitory effect can be measured by the carrageenin test (Winter, C. A., E. A. Risley and G. W. Nuss, Proc. Soc. Exp. Biol. Med. 111: 544-547 [1962]).

mast cells of the lungs = details: upon inhalation; J. Med. Chem. 15: 583 [1972]; cited from earlier work
[10] = IgE serum dilution 1:8, dissolved as the sodium salt, read-out: % Inhibition, IgE 1:8
[11] = IgE serum dilution 1:16, dissolved as the sodium salt, read-out: % Inhibition, IgE 1:16

Molecule | MIC [1] [µg/mL] | MIC [2] [µg/mL] | MIC [3] [µg/mL] | MIC [4] [µg/mL] | MIC (Diplococcus pneumoniae) [µg/mL] | MIC [5] [µg/mL] | MIC [6] [µg/mL] | MIC [7] [µg/mL] | inhibition at 5 mg/kg [9, 10] [%] | inhibition at 5 mg/kg [9, 11] [%] | inhibition at 10 mg/kg [9, 10] [%] | inhibition at 10 mg/kg [9, 11] [%] | also measured
O=C(O)c1cc(=O)c2c(OCC(O)COc3cccc4oc(C(=O)O)cc(=O)c34)cccc2o1 [Cromoglycic Acid, reference compound] | > 100 | > 100 | > 100 | > 100 | > 100 | > 100 | > 100 | > 100 | 63 | 67 | 60 | 84 | antibacterial activity [8]: ineffective against all bacteria investigated; antiinflammatory activity (carrageenin test; in words): only an extremely weak efficacy, or even no corresponding efficacy at all; inhibition at 10 mg/kg (carrageenin test; iv, 10 mg./kg.): 10%; inhibition at 75 mg/kg (carrageenin test; po, 75 mg./kg.): 0%
1,3-Bis(1-ethoxy-3-carboxy-1,4-dihydro-4-oxo-7-quinolyloxy)-2-propanol |  |  |  |  |  |  |  |  |  |  |  |  | % Inhibition (carrageenin test; i.v., 10 mg./kg.): 44%; % Inhibition (carrageenin test; p.o., 75 mg./kg.): 28%
CCCCn1cc(C(=O)O)c(=O)c2ccc(OCC(O)COc3ccc4c(=O)c(C(=O)O)cn(CCCC)c4c3)cc21 [1,3-Bis(1-butyl-3-carboxy-1,4-dihydro-4-oxo-7-quinolyloxy)-2-propanol] |  |  |  |  |  |  |  |  |  |  | 71 | 85 | 
O=C(O)c1cc(=O)c2c(OCC(O)COc3cccc4oc(C(=O)O)cc(=O)c34)cccc2o1 [sodium salt of cromoglycic acid] |  |  |  |  |  |  |  |  |  |  |  |  | inhibition of liberation of mediators triggering bronchoconstriction, such as histamine and SRS-A (mast cells of the lungs): inhibit the liberation of mediators triggering bronchoconstriction
Cn1cc(C(=O)O)c(=O)c2ccc(OCC(O)COc3ccc4c(=O)c(C(=O)O)cn(C)c4c3)cc21 [1,3-Bis(3-carboxy-1,4-dihydro-1-methyl-4-oxo-7-quinolyloxy)-2-propanol] |  |  |  |  |  |  |  |  | 62 | 69 |  |  | 
CCn1cc(C(=O)O)c(=O)c2ccc(OCC(O)COc3ccc4c(=O)c(C(=O)O)cn(CC)c4c3)cc21 [1,3-Bis(1-ethyl-3-carboxy-1,4-dihydro-4-oxo-7-quinolyloxy)-2-propanol] | 12.5 (≈ 23.9 µM) | 50 (≈ 95.7 µM) | 12.5 (≈ 23.9 µM) | 50 (≈ 95.7 µM) | 50 (≈ 95.7 µM) | 25 (≈ 47.8 µM) | 50 (≈ 95.7 µM) | 25 (≈ 47.8 µM) | 59 | 69 | 84 | 90 | 
